IC50 data for one compound are collected here from BindingDB's records for patent US10052306 (CADENT THERAPEUTICS, INC., 2018).

The structures appear in SMILES notation.

In this test the target is Glutamate receptor ionotropic, NMDA 2B (Homo sapiens, UniProt Q13224). Briefly: FDSS Assay.
Glutamate receptor ionotropic, NMDA 2B, sequence (Q13224 whole entry): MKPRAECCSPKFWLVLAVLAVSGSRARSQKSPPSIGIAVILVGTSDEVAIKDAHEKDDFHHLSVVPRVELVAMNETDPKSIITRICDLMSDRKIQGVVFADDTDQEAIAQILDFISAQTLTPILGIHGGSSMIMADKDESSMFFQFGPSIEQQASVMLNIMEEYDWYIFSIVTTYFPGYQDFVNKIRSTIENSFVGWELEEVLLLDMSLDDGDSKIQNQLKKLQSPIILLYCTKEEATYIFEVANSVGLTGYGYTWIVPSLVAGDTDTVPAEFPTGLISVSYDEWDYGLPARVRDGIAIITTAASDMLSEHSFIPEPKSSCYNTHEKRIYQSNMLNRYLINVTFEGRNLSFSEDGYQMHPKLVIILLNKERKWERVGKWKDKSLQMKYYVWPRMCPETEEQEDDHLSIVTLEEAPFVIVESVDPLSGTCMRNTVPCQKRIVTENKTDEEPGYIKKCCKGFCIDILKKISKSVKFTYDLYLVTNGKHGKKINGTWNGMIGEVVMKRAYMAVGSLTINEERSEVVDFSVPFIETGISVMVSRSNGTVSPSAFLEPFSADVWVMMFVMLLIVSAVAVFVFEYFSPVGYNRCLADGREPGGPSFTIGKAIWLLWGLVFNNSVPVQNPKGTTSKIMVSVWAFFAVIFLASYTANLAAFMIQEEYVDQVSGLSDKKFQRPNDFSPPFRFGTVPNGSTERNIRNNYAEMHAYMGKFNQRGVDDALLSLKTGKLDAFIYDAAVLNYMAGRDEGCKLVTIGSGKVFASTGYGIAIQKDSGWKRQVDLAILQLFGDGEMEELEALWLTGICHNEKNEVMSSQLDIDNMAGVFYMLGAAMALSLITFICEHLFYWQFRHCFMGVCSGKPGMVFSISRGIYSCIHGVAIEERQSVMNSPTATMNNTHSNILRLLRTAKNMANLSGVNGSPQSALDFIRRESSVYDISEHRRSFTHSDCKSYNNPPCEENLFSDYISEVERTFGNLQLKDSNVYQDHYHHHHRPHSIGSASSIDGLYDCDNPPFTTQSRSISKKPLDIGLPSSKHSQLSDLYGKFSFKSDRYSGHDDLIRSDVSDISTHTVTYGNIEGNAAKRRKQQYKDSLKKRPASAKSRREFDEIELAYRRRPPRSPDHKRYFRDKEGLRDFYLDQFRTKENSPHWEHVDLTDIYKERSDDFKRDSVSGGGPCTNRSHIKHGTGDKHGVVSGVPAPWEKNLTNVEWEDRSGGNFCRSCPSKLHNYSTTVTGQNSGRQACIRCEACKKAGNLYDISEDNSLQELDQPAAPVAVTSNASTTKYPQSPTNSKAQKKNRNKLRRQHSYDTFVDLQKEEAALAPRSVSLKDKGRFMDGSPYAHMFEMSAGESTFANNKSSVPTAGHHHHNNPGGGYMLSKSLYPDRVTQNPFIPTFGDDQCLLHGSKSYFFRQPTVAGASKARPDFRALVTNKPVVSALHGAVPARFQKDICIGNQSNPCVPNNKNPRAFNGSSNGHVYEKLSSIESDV

Protocol: To each well of the plate, 10 μL test compound, control (MK801) or HHnoCa buffer was added to a final concentration of 10 μM with a final concentration of DMSO of 0.1%. Following 10 minutes pre-incubation in the dark, plates are loaded onto the Hamamatsu FDSS 6000. After collecting baseline fluorescence images, 3 μM glutamate, 3 glycine, and 1 mM Ca2+ in HHnoCa buffer is added to each well, and Ca2+ is recorded for 3 minutes. Data were processed by computing ratio of fluorescence at the end of data collection to baseline fluorescence to assess degree of Ca′ influx inhibition relative to that observed in MK801.

The term IC50 denotes the concentration needed to halve the response being measured. A high value points to lower potency. The compound `O=C(CN1C[C@@H]2C[C@@](O)(c3ccccc3)C[C@@H]2C1)c1ccc(O)cc1` [US10052306, 65] had an IC50 of 10 µM.
